Reference: publication PMC10372819 (Acta Pharmaceutica Sinica. B, 2023)

How the values were obtained:
[1] = system: HIV-1 mutant E138K; assay: microbe, parasite or virus in culture; conditions: Human immunodeficiency virus 1, MT4, read-out: EC50 E138K
[2] = system: WT HIV-1; assay: microbe, parasite or virus in culture; conditions: Human immunodeficiency virus 1, MT4, read-out: WT EC50
[3] = system: HIV-1 mutant Y188L; assay: microbe, parasite or virus in culture; conditions: Human immunodeficiency virus 1, MT4, read-out: EC50 Y188L
[4] = system: HIV-1 mutant K103N; assay: microbe, parasite or virus in culture; conditions: Human immunodeficiency virus 1, MT4, read-out: EC50 K103N
[5] = Cytotoxicity in uninfected; conditions: human, mock-infected (uninfected) MT-4 cells, CC50, uninfected MT-4 cells, MTT
[6] = system: HIV-1 mutant L100I; assay: microbe, parasite or virus in culture; conditions: Human immunodeficiency virus 1, MT4, read-out: EC50 L100I
[7] = system: WT HIV-1; conditions: Selectivity index CC50/EC50 (WT)
[8] = target: CYP2D6 (Homo sapiens, UniProt P10635); assay: biochemical
CYP2D6, sequence (P10635 whole entry): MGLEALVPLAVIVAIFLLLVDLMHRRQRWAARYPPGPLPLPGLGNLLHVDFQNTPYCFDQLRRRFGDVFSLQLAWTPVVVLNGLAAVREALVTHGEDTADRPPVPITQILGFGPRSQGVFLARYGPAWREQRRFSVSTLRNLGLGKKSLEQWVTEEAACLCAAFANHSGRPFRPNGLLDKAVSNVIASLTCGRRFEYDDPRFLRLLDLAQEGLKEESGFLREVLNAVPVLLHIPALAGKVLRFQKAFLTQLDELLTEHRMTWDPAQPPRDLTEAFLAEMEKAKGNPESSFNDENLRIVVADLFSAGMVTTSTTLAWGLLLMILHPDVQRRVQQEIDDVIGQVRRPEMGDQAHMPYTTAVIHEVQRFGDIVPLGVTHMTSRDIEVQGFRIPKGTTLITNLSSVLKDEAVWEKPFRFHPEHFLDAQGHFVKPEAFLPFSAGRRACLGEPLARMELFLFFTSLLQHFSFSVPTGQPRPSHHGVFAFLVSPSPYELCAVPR

| Compound | EC50 [1] [nM] | EC50 [2] [nM] | EC50 [3] [nM] | EC50 [4] [nM] | CC50 at 5 days [5] [nM] | EC50 [6] [nM] | SI [7] | IC50 [8] [nM] |
| --- | --- | --- | --- | --- | --- | --- | --- | --- |
| COc1cc(-c2ccncc2)ccc1Oc1nc(Nc2ccc(C#N)cc2)ncc1CO [9i, 4-((5-(Hydroxymethyl)-4-(2-methoxy-4-(pyridin-4-yl)phenoxy)pyrimidin-2-yl)amino)benzonitrile] | 217 ± 18.4 | 18.2 ± 6.8 | 1750 ± 123 | 95.6 ± 17.6 | 30500 ± 3400 | 560 ± 137 | 1679 |  |
| N#Cc1ccc(Nc2ncc(CO)c(Oc3ccc(-c4ccncc4)cc3F)n2)cc1 [9j, 4-((4-(2-Fluoro-4-(pyridin-4-yl)phenoxy)-5-(hydroxymethyl)pyrimidin-2-yl)amino)benzonitrile] | 42.4 ± 6.7 | 4.7 ± 0.7 | > 48400 | 35.1 ± 8.1 | > 48400 | 327 ± 44.9 | >10,256 |  |
| N#Cc1ccc(Nc2ncc(CO)c(Oc3ccc(-c4ccncc4)cc3Cl)n2)cc1 [9k, 4-((4-(2-Chloro-4-(pyridin-4-yl)phenoxy)-5-(hydroxymethyl)pyrimidin-2-yl)amino)benzonitrile] | 45.9 ± 5.9 | 4.9 ± 0.9 | 43000 | 35.4 ± 12.3 | 264000 ± 10200 | 327 ± 54.8 | 53,539 |  |
| N#Cc1ccc(Nc2ncc(CO)c(Oc3c(F)cc(-c4ccncc4)cc3F)n2)cc1 [9l, 4-((4-(2,6-Difluoro-4-(pyridin-4-yl)phenoxy)-5-(hydroxymethyl)pyrimidin-2-yl)amino)benzonitrile] | 13.6 ± 1.2 | 0.9 | 720 ± 272 | 3 ± 0.3 | 128000 ± 5500 | 22.2 ± 6.2 | 138,219 |  |
| N#Cc1ccc(Nc2ncc(CO)c(Oc3ccc(-c4cccnc4)cc3F)n2)cc1 [9m, 4-((4-(2-Fluoro-4-(pyridin-3-yl)phenoxy)-5-(hydroxymethyl)pyrimidin-2-yl)amino)benzonitrile] | 2490 ± 388 | 306 ± 43.6 | > 178000 | 1690 ± 165 | 178000 ± 32900 | 13700 ± 1140 | 583 |  |
| COc1ccc2c(c1)[C@]13CCCC[C@@H]1[C@H](C2)N(C)CC3 [Dextromethorphan] |  |  |  |  |  |  |  | 39.7 |
| O=C1Nc2ccc(Cl)cc2[C@@](C#CC2CC2)(C(F)(F)F)O1 [EFV, efavirenz, reference compound] | 6 | 7 | 290 ± 40 | 102 ± 50 | > 6300 | 440 ± 70 |  |  |
| Cc1cc(C#N)cc(C)c1Oc1nc(Nc2ccc(C#N)cc2)nc(N)c1Br [ETR, etravirine, reference compound] | 7 ± 10 | 6 | 20 ± 10 | 3 | > 4600 | 7 |  |  |
| Cc1ccnc2c1NC(=O)c1cccnc1N2C1CC1 [NVP, nevirapine, reference compound] | 2100 ± 30 |  | > 15900 | > 10100 | > 15000 | 2100 ± 750 |  |  |
